In patent US10266537B2, “3-acetylenyl-pyrazole-pyrimidine derivative, and preparation method therefor and uses thereof” (Si Chuan University, priority 2015, dated 2019):
pIC50: −log10 of the molar value.

Tests used:
MDA-MB-231 = assay: Cell proliferation inhibition assay (MTT); assay type: cell-based, human; conditions: Homo sapiens; MDA-MB-231; MTT, 72 hours; read-out: Proliferative inhibitory activity MDA-MB-231 (IC50 class)
Procedure: The remaining cell lines were cultured in DMEM complete medium containing 10% fetal bovine serum (MV4-11 cells 20%), 100 U/ml penicillin, 100 μg/mL streptomycin at 5% CO2, and 37° C.
The cells were seeded in 96-well plates with 200 μL of cell suspension per well and incubated overnight in a cell culture medium with a cell concentration of 1˜2×10^4 cells/mL. The next day, the supernatant was discarded (the suspension cell was centrifuged before it) and the cells were treated with gradient concentrations of the test compound, respectively. At the same time, the drug-free negative control group and the equal volume of solvent control group, DMSO concentration of 0.1%, each dose group set up three wells, 37° C., 5% CO2 conditions. After 72 hours, add 20 μL of MTT reagent at a concentration of 5 mg/mL per well. After incubation for 2-4 h, the supernatant was discarded and 150 μL of DMSO was added to each well. […] Determine the absorbance (A) value (λ=570 nm, A value is proportional to the number of living cells), whichever is the average. […] The experiment was repeated at least 3 times. Experimental data were expressed as mean, data statistics using t test, P<0.05 for the difference was statistically significant. The inhibitory effects of the following compounds on cell proliferation were expressed as IC50 or inhibition rates.

MDA-MB-435 = assay: Cell proliferation inhibition assay (MTT); assay type: cell-based, human; conditions: Homo sapiens; MDA-MB-435; MTT, 72 hours; read-out: Proliferative inhibitory activity MDA-MB-435 (IC50 class)
c-Src(1-530) = c-Src(1-530) (Homo sapiens (Human), UniProt P12931); assay: Kinase inhibition assay (KinaseProfiler, 33P-ATP); conditions: c-Src(1-530); ATP at Km
Sequence of c-Src(1-530) (P12931 whole entry, looked up): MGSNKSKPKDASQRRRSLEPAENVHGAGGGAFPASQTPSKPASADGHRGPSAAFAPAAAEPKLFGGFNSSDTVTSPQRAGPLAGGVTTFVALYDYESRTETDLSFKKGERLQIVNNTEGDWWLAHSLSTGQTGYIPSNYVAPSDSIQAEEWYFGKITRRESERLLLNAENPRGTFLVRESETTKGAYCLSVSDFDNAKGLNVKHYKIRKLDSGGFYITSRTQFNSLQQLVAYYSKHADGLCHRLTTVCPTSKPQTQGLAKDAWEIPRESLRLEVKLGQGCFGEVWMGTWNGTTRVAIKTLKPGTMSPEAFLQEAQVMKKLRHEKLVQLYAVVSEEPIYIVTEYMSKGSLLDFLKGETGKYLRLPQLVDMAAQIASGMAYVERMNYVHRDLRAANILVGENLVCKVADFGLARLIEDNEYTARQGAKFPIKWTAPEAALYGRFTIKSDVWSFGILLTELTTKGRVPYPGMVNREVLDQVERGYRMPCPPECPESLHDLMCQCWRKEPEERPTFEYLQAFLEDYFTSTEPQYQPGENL

Cc1ccc(C(=O)Nc2ccc(CN3CCN(C)CC3)c(C(F)(F)F)c2)cc1C#Cc1nn(C2CCC2)c2ncnc(N)c12 [Compound 6]
pIC50 (MDA-MB-231): > 7.00
pIC50 (MDA-MB-435): > 7.00
pIC50 (c-Src(1-530)): 8.05

Cc1ccc(C(=O)Nc2ccc(CN3CCN(C)CC3)c(C(F)(F)F)c2)cc1C#Cc1nn(C2CCCC2)c2ncnc(N)c12 [Compound 7]
pIC50 (MDA-MB-231): > 7.00
pIC50 (MDA-MB-435): > 7.00
pIC50 (c-Src(1-530)): 7.72

Cc1ccc(C(=O)Nc2ccc(CN3CCN(C)CC3)c(C(F)(F)F)c2)cc1C#Cc1nn(C)c2ncnc(N)c12 [Compound 8]
pIC50 (MDA-MB-231): > 7.00
pIC50 (MDA-MB-435): > 7.00
pIC50 (c-Src(1-530)): 8.15

CC(C)n1nc(C#Cc2cc(C(=O)Nc3ccc(CN4CCN(C)CC4)c(C(F)(F)F)c3)ccc2Cl)c2c(N)ncnc21 [Compound 9]
pIC50 (MDA-MB-231): 6.30 to 7.00
pIC50 (MDA-MB-435): > 7.00
pIC50 (c-Src(1-530)): 7.82

Cc1ccc(NC(=O)c2ccc(Cl)c(C(F)(F)F)c2)cc1C#Cc1nn([C@@H]2CCN(C(=O)[C@H](C)O)C2)c2ncnc(N)c12 [Compound 72]
pIC50 (MDA-MB-231): > 7.00
pIC50 (MDA-MB-435): < 6.00

Cc1ccc(NC(=O)c2ccc(Cl)c(C(F)(F)F)c2)cc1C#Cc1nn([C@@H]2CCN(C(=O)[C@@H](C)O)C2)c2ncnc(N)c12 [Compound 73]
pIC50 (MDA-MB-231): > 7.00
pIC50 (MDA-MB-435): < 6.00

Cc1ccc(NC(=O)c2ccc(Cl)c(C(F)(F)F)c2)cc1C#Cc1nn(C2CCC(O)CC2)c2ncnc(N)c12 (stereo not drawn) [Compound 74]
pIC50 (MDA-MB-231): > 7.00
pIC50 (MDA-MB-435): > 7.00

Cc1ccc(NC(=O)c2ccc(Cl)c(C(F)(F)F)c2)cc1C#Cc1nn(CC2CCN(S(C)(=O)=O)CC2)c2ncnc(N)c12 [Compound 75]
pIC50 (MDA-MB-231): 6.30 to 7.00
pIC50 (MDA-MB-435): < 6.00

Cc1ccc(NC(=O)c2ccc(Cl)c(C(F)(F)F)c2)cc1C#Cc1nn(CC2CCN(S(C)(=O)=O)C2)c2ncnc(N)c12 (stereo not drawn) [Compound 76]
pIC50 (MDA-MB-231): > 7.00
pIC50 (MDA-MB-435): 6.30 to 7.00

Cc1ccc(NC(=O)c2ccc(Cl)c(C(F)(F)F)c2)cc1C#Cc1nn(C2CCC2)c2ncnc(N)c12 [Compound 77]
pIC50 (MDA-MB-231): 6.00 to 6.30
pIC50 (MDA-MB-435): < 6.00

Cc1ccc(NC(=O)c2ccc(Cl)c(C(F)(F)F)c2)cc1C#Cc1nn(C2CCCC2)c2ncnc(N)c12 [Compound 78]
pIC50 (MDA-MB-231): > 7.00
pIC50 (MDA-MB-435): 6.00 to 6.30

Cc1ccc(NC(=O)c2ccc(Cl)c(C(F)(F)F)c2)cc1C#Cc1nn(CC2CCN(C)CC2)c2ncnc(N)c12 [Compound 79]
pIC50 (MDA-MB-231): > 7.00
pIC50 (MDA-MB-435): 6.00 to 6.30

Cc1ccc(NC(=O)c2ccc(Cl)c(C(F)(F)F)c2)cc1C#Cc1nn(CC(=O)N2CCOCC2)c2ncnc(N)c12 [Compound 80]
pIC50 (MDA-MB-231): > 7.00
pIC50 (MDA-MB-435): < 6.00

Cc1ccc(NC(=O)c2ccc(Cl)c(C(F)(F)F)c2)cc1C#Cc1nn(C2CCN(S(C)(=O)=O)CC2)c2ncnc(N)c12 [Compound 81]
pIC50 (MDA-MB-231): > 7.00
pIC50 (MDA-MB-435): 6.30 to 7.00

Cc1ccc(NC(=O)c2ccc(Cl)c(C(F)(F)F)c2)cc1C#Cc1nn(C[C@@H](C)CO)c2ncnc(N)c12 [Compound 82]
pIC50 (MDA-MB-231): > 7.00
pIC50 (MDA-MB-435): 6.30 to 7.00

Cc1ccc(NC(=O)c2ccc(Cl)c(C(F)(F)F)c2)cc1C#Cc1nn(C[C@H](C)CO)c2ncnc(N)c12 [Compound 83]
pIC50 (MDA-MB-231): > 7.00
pIC50 (MDA-MB-435): 6.30 to 7.00

Cc1ccc(NC(=O)c2ccc(Cl)c(C(F)(F)F)c2)cc1C#Cc1nn([C@@H]2CCN(S(C)(=O)=O)C2)c2ncnc(N)c12 [Compound 84]
pIC50 (MDA-MB-231): > 7.00
pIC50 (MDA-MB-435): 6.30 to 7.00

Cc1ccc(NC(=O)c2ccc(Cl)c(C(F)(F)F)c2)cc1C#Cc1nn([C@@H]2CCN(C)C2)c2ncnc(N)c12 [Compound 85]
pIC50 (MDA-MB-231): > 7.00
pIC50 (MDA-MB-435): < 6.00

Cc1ccc(NC(=O)c2ccc(Cl)c(C(F)(F)F)c2)cc1C#Cc1nn(C2CCCN(C(=O)[C@H](C)O)C2)c2ncnc(N)c12 (stereo partly drawn) [Compound 86]
pIC50 (MDA-MB-231): > 7.00
pIC50 (MDA-MB-435): < 6.00

Cc1ccc(NC(=O)c2ccc(Cl)c(C(F)(F)F)c2)cc1C#Cc1nn(C2CCCN(C(=O)[C@@H](C)O)C2)c2ncnc(N)c12 (stereo partly drawn) [Compound 87]
pIC50 (MDA-MB-231): > 7.00
pIC50 (MDA-MB-435): < 6.00

Cc1ccc(NC(=O)c2ccc(Cl)c(C(F)(F)F)c2)cc1C#Cc1nn([C@@H]2CCCN(C(=O)[C@@H](C)O)C2)c2ncnc(N)c12 [Compound 88]
pIC50 (MDA-MB-231): > 7.00
pIC50 (MDA-MB-435): 6.30 to 7.00

Cc1ccc(NC(=O)c2ccc(Cl)c(C(F)(F)F)c2)cc1C#Cc1nn([C@@H]2CCCN(C)C2)c2ncnc(N)c12 [Compound 89]
pIC50 (MDA-MB-231): > 7.00
pIC50 (MDA-MB-435): 6.30 to 7.00

Cc1ccc(NC(=O)c2ccc(Cl)c(C(F)(F)F)c2)cc1C#Cc1nn([C@@H]2CCCN(S(C)(=O)=O)C2)c2ncnc(N)c12 [Compound 90]
pIC50 (MDA-MB-231): > 7.00
pIC50 (MDA-MB-435): 6.00 to 6.30

Cc1ccc(NC(=O)c2ccc(Cl)c(C(F)(F)F)c2)cc1C#Cc1nn(C2CCCN(S(C)(=O)=O)C2)c2ncnc(N)c12 (stereo not drawn) [Compound 91]
pIC50 (MDA-MB-231): > 7.00
pIC50 (MDA-MB-435): 6.30 to 7.00

Cc1ccc(NC(=O)c2ccc(Cl)c(C(F)(F)F)c2)cc1C#Cc1nn(C2CCCN(C)C2)c2ncnc(N)c12 (stereo not drawn) [Compound 92]
pIC50 (MDA-MB-231): > 7.00
pIC50 (MDA-MB-435): 6.30 to 7.00

Cc1ccc(NC(=O)c2nc(C(C)(C)C)cs2)cc1C#Cc1nn(CC2CCN(C)C2)c2ncnc(N)c12 (stereo not drawn) [Compound 94]
pIC50 (MDA-MB-231): 6.30 to 7.00
pIC50 (MDA-MB-435): 6.30 to 7.00

Cc1ccc(NC(=O)c2nc(C(C)(C)C)cs2)cc1C#Cc1nn(C[C@@H](C)CO)c2ncnc(N)c12 [Compound 95]
pIC50 (MDA-MB-231): 6.30 to 7.00
pIC50 (MDA-MB-435): > 7.00

Cc1ccc(NC(=O)c2nc(C(C)(C)C)cs2)cc1C#Cc1nn(CC2CCN(C)CC2)c2ncnc(N)c12 [Compound 96]
pIC50 (MDA-MB-231): 6.30 to 7.00
pIC50 (MDA-MB-435): 6.30 to 7.00

Cc1ccc(NC(=O)c2nc(C(C)(C)C)cs2)cc1C#Cc1nn([C@@H]2CCN(C)C2)c2ncnc(N)c12 [Compound 97]
pIC50 (MDA-MB-231): 6.30 to 7.00
pIC50 (MDA-MB-435): 6.30 to 7.00

Cc1ccc(NC(=O)c2ccc(C)c(C(F)(F)F)c2)cc1C#Cc1nn(CC2CCN(C)C2)c2ncnc(N)c12 (stereo not drawn) [Compound 98]
pIC50 (MDA-MB-231): > 7.00
pIC50 (MDA-MB-435): > 7.00

Cc1ccc(NC(=O)c2ccc(C)c(C(F)(F)F)c2)cc1C#Cc1nn(C[C@@H](C)CO)c2ncnc(N)c12 [Compound 99]
pIC50 (MDA-MB-231): > 7.00
pIC50 (MDA-MB-435): 6.30 to 7.00

Cc1ccc(NC(=O)c2cccc(C(F)(F)F)c2)cc1C#Cc1nn(C[C@@H](C)CO)c2ncnc(N)c12 [Compound 101]
pIC50 (MDA-MB-231): > 7.00
pIC50 (MDA-MB-435): > 7.00

CCn1nc(C#Cc2cc(NC(=O)c3ccc(CN4CCN(C)CC4)c(C(F)(F)F)c3)ccc2C)c2c(N)ncnc21 [Compound 102]
pIC50 (MDA-MB-231): > 7.00
pIC50 (MDA-MB-435): > 7.00

Cc1ccc(C(=O)Nc2cccc(C(F)(F)F)c2)cc1C#Cc1nn([C@H]2CC[C@H](O)CC2)c2ncnc(N)c12 [Compound 103]
pIC50 (MDA-MB-231): > 7.00
pIC50 (MDA-MB-435): > 7.00

CCNc1ncnc2c1c(C#Cc1cc(C(=O)Nc3cccc(C(F)(F)F)c3)ccc1C)nn2CC [Compound 104]
pIC50 (MDA-MB-231): 6.30 to 7.00
pIC50 (MDA-MB-435): 6.30 to 7.00

Cc1ccc(C(=O)Nc2cccc(C(F)(F)F)c2)cc1C#Cc1nn(C[C@@H](C)CO)c2ncnc(N)c12 [Compound 105]
pIC50 (MDA-MB-231): > 7.00
pIC50 (MDA-MB-435): 6.30 to 7.00

Cc1ccc(C(=O)Nc2cccc(C(F)(F)F)c2)cc1C#Cc1nn(C[C@H](C)CO)c2ncnc(N)c12 [Compound 106]
pIC50 (MDA-MB-231): > 7.00
pIC50 (MDA-MB-435): > 7.00

Cc1ccc(C(=O)Nc2cccc(C(F)(F)F)c2)cc1C#Cc1nn([C@@H]2CCN(C)C2)c2ncnc(N)c12 [Compound 107]
pIC50 (MDA-MB-231): > 7.00
pIC50 (MDA-MB-435): > 7.00

Cc1ccc(C(=O)Nc2cccc(C(F)(F)F)c2)cc1C#Cc1nn(CC2CCN(C)C2)c2ncnc(N)c12 (stereo not drawn) [Compound 108]
pIC50 (MDA-MB-231): > 7.00
pIC50 (MDA-MB-435): 6.30 to 7.00

Cc1ccc(C(=O)Nc2cccc(C(F)(F)F)c2)cc1C#Cc1nn(CC2CCN(C)CC2)c2ncnc(N)c12 [Compound 109]
pIC50 (MDA-MB-231): > 7.00
pIC50 (MDA-MB-435): > 7.00

Cc1ccc(NC(=O)c2ccc(C)c(C(F)(F)F)c2)cc1C#Cc1nn(C[C@H](C)CO)c2ncnc(N)c12 [Compound 110]
pIC50 (MDA-MB-231): > 7.00
pIC50 (MDA-MB-435): > 7.00

Cc1ccc(NC(=O)c2cccc(C(F)(F)F)c2)cc1C#Cc1nn(C[C@H](C)CO)c2ncnc(N)c12 [Compound 111]
pIC50 (MDA-MB-231): > 7.00
pIC50 (MDA-MB-435): > 7.00

Cc1ccc(NC(=O)c2ccc(C)c(C(F)(F)F)c2)cc1C#Cc1nn(CC2CCN(C)CC2)c2ncnc(N)c12 [Compound 115]
pIC50 (MDA-MB-231): > 7.00
pIC50 (MDA-MB-435): 6.30 to 7.00

Cc1ccc(NC(=O)c2ccc(C)c(C(F)(F)F)c2)cc1C#Cc1nn([C@@H]2CCN(C)C2)c2ncnc(N)c12 [Compound 116]
pIC50 (MDA-MB-231): 6.30 to 7.00
pIC50 (MDA-MB-435): 6.30 to 7.00

Cc1ccc(NC(=O)c2cccc(C(C)(C)C)c2)cc1C#Cc1nn([C@H]2CC[C@H](O)CC2)c2ncnc(N)c12 [Compound 118]
pIC50 (MDA-MB-231): > 7.00
pIC50 (MDA-MB-435): > 7.00

CCn1nc(C#Cc2cc(C(=O)Nc3cccc(C(F)(F)F)c3)ccc2C)c2c(N)ncnc21 [Compound 119]
pIC50 (MDA-MB-231): 6.30 to 7.00
pIC50 (MDA-MB-435): 6.30 to 7.00
